Results: ChEMBL document CHEMBL3352246, “Design and synthesis of novel 5-(3,4,5-trimethoxybenzoyl)-4-aminopyrimidine derivatives as potent and selective phosphodiesterase 5 inhibitors: scaffold hopping using a pseudo-ring by intramolecular hydrogen bond formation” (Bioorg Med Chem Lett, 2014)

Columns and labels:
[1] = target: cGMP-specific 3',5'-cyclic phosphodiesterase (Canis lupus familiaris, UniProt O77746); assay: Inhibition of canine lung PDE5 using [3H]cGMP substrate by radiolabeled nucleotide method
[2] = Selectivity index, ratio of IC50 for light activated bovine retina PDE6 to IC50 for canine lung PDE5
Corpus cavernosum = assay: Relaxant activity in rabbit corpus cavernosum assessed as reduction in phenyepinephrine-induced contraction; assay type: functional, tissue-based; conditions: Oryctolagus cuniculus
[3] = Inhibition of light activated bovine retina PDE6 using [3H]cGMP substrate by radiolabeled nucleotide method; parameters: species or system Bos taurus
[4] = target: cGMP-specific 3',5'-cyclic phosphodiesterase (Homo sapiens, UniProt O76074); assay: Inhibition of PDE5 (unknown origin)
[5] = Selectivity index, ratio of IC50 for light activated bovine retina PDE6 to IC50 for PDE5 (unknown origin)
[6] = Selectivity index, ratio of IC50 for trypsin activated bovine retina PDE6 to IC50 for PDE5 (unknown origin)

Structure (SMILES)	IC50 [1] [nM]	Ratio IC50 [2]	EC50 (Corpus cavernosum) [nM]	IC50 [3] [nM]	IC50 [4] [nM]	Ratio IC50 [5]	Ratio IC50 [6]
COc1ccc(CNc2nc(OCc3ccccn3)ncc2C(=O)c2cc(OC)c(OC)c(OC)c2)cc1Cl	0.13	2400	53				
COC(=O)c1ncc2cc(OCc3ccccn3)ccc2c1-c1cc(OC)c(OC)c(OC)c1	34			> 10000			
COc1ccc(CNc2nc(N3CCOC(CO)C3)ncc2C(=O)c2cc(OC)c(OC)c(OC)c2)cc1Cl (stereo not given)	1.8	2800	11				
COC(=O)c1nc(N2CCC(O)CC2)c2cc(OCc3ccccc3)ccc2c1-c1cc(OC)c(OC)c(OC)c1	2			590			
COc1ccc(COc2nc(OCc3ccccn3)ncc2C(=O)c2cc(OC)c(OC)c(OC)c2)cc1Cl	1.5						
COc1ccc(CNc2nc(N3CCCCC3)ncc2C(=O)c2cc(OC)c(OC)c(OC)c2)cc1Cl	0.74	2000					
COc1ccc(CNc2nc(N3CCOCC3)ncc2C(=O)c2cc(OC)c(OC)c(OC)c2)cc1Cl	1.5	6700	> 100				
COCCOc1ncc(C(=O)c2cc(OC)c(OC)c(OC)c2)c(NCc2ccc(OC)c(Cl)c2)n1	1.7	2200	10				
COc1ccc(CNc2nc(N3CCc4ccccc4C3)ncc2C(=O)c2cc(OC)c(OC)c(OC)c2)cc1Cl	0.053	3200	> 100				
COc1ccc(CNc2cc(OCc3ccccn3)ccc2C(=O)c2cc(OC)c(OC)c(OC)c2)cc1Cl	0.66	18000	> 100				
COc1ccc(CNc2nc(N(C)CCO)ncc2C(=O)c2cc(OC)c(OC)c(OC)c2)cc1Cl	2.7	> 3700	29				
COc1ccc(CN(C)c2nc(OCc3ccccn3)ncc2C(=O)c2cc(OC)c(OC)c(OC)c2)cc1Cl	5						
COc1ccc(CNc2nc(OCc3ccccc3)ncc2C(=O)c2cc(OC)c(OC)c(OC)c2)cc1Cl	0.38	1600	> 100				
COC(=O)c1nc(NCc2ccc(OC)c(Cl)c2)c2cc(OCc3ccccc3)ccc2c1-c1cc(OC)c(OC)c(OC)c1	3.5			> 10000			
COC(=O)c1c(-c2cc(OC)c(OC)c(OC)c2)c2ccc(OCc3ccccn3)cc2c(=O)n1-c1ccc(N)cc1					1	650	32
COc1ccc(CNc2nc(OCc3ncccn3)ncc2C(=O)c2cc(OC)c(OC)c(OC)c2)cc1Cl	3.4	560	3.1				
